Like-named read-outs stand apart in the source and are kept apart here.
Columns and labels:
[1] = DPPH radical scavenging test (spectrophotometric, 517 nm)
Description: Radical scavenging capacity, as an indicator of the antioxidant capacity of compounds against 1,1-diphenyl-2-picrylhydrazyl (DPPH) free radicals and 2,2-azinobis (3-ethyl- enzothiazoline-6-sulfonic acid), ABTS•+ radical cations, was determined using a spectrophotometric assay. Antiradical capacity analysis was performed either on pure MeOH for ABTS or the mixture of MeOH/distilled water (90:10 v/v) for DPPH. For both ABTS and DPPH assays, the stock solutions of complexes were prepared in DMSO. Quercetin was used as an antioxidant standard in the DPPH and ABTS•+ scavenging tests. […] EC50 values were estimated using nonlinear regression. A lower EC50 value indicates higher antiradical activity.
The DPPH assay was performed according to the method developed by Brand-Williams et al. slightly modified. A solution of 1 mM DPPH in 90% (v/v) methanol was stirred for 40 min. The absorbance of the solution was adjusted to 0.650 ± 0.020 at 517 nm using fresh 90% (v/v) methanol. Then, 0.02 mL of quercetin taken as a standard or sample was mixed with 1.98 mL of DPPH solution and incubated for 30 min in the dark covered with aluminum foil. When reacting with an antioxidant, the DPPH• radical is converted into DPPH, and its color changes from purple to yellow. The antioxidant effect may be easily evaluated by observing the decrease in visible absorption. The absorbance decrease was monitored at 517 nm after 30 min of incubation with a Hewlett Packard 8453 spectrophotometer. The control consisted of 0.02 mL of DMSO in 1.98 mL of DPPH solution. A similar formula (Equation (1)) was applied to determine the DPPH radical scavenging activity.
(§1) Results were expressed as mean values ± standard deviation (SD). All measurements were replicated three times. EC50 values were calculated with GraphPad Prism 6.0 (GraphPad Software, San Diego, CA, USA) under the application of the function “log (inhibitor) versus normalized response-variable slope” after converting the concentrations into their decimal logarithm. The results were analyzed using Student’s test and a two-way analysis of variance (ANOVA), and a multiple comparison of all data was performed using Tukey’s multiple comparisons test. p < 0.0001 was considered significant.

[2] = ABTS radical scavenging test (spectrophotometric, 734 nm); details: concentration scavenging 50% of ABTS•+; MeOH, 30 min; mean ± SD
Description: Radical scavenging capacity, as an indicator of the antioxidant capacity of compounds against 1,1-diphenyl-2-picrylhydrazyl (DPPH) free radicals and 2,2-azinobis (3-ethyl- enzothiazoline-6-sulfonic acid), ABTS•+ radical cations, was determined using a spectrophotometric assay. Antiradical capacity analysis was performed either on pure MeOH for ABTS or the mixture of MeOH/distilled water (90:10 v/v) for DPPH. For both ABTS and DPPH assays, the stock solutions of complexes were prepared in DMSO. Quercetin was used as an antioxidant standard in the DPPH and ABTS•+ scavenging tests. EC50 is defined as the concentration of compound (µM) required to scavenge 50% of ABTS•+ or DPPH radicals. EC50 values were estimated using nonlinear regression. A lower EC50 value indicates higher antiradical activity.
The ABTS assay was based on the method described by Re et al.. For the generation of ABTS•+ radicals, sodium persulfate (2.45 mM) aqueous solution was mixed with ABTS (7 mM) and incubated overnight in the dark to obtain a dark colored solution. The stock solution of ABTS•+ was then diluted by adding pure methanol (100%) to obtain an absorbance of 0.70 (±0.02) at 734 nm at 30 °C. An aliquot of 0.02 mL of tested compound was added to 1.98 mL of ABTS•+, and the decrease in absorbance was monitored at 734 nm after 30 min [80]. During this reaction, the blue green ABTS radical cation is converted back into its colorless neutral form in the presence of the potential antioxidant molecule. A control consisted of 0.02 mL of DMSO in 1.98 mL of ABTS•+ solution. The reducing capacity was determined according to the following formula:% inhibition = (A control − A Sample) × 100/A Control (1)
as §1

[3] = cited from earlier work
[4] = Antiradical efficiency (kinetic study via DPPH assay)
Description: The reaction between potential antioxidants and the oxidized substrate requires a steady state which will depend on several parameters, such as the reaction time. The time needed to reach the steady state, at the concentration corresponding to EC50, is more and more frequently used and can be defined as TEC50. In brief, TEC50 was determined by plotting the recorded absorbance during the period for the EC50 concentration for the considered antioxidant compound. […] The antiradical efficiency of compounds and their classification are considered according to the work of Sanchez-Moreno [69].

[5] = target: T1, horseradish peroxidase (HRP) (Armoracia rusticana, UniProt P00433); experiment: biochemical; format: biochemical
T1 sequence (P00433 31-338 limits assumed): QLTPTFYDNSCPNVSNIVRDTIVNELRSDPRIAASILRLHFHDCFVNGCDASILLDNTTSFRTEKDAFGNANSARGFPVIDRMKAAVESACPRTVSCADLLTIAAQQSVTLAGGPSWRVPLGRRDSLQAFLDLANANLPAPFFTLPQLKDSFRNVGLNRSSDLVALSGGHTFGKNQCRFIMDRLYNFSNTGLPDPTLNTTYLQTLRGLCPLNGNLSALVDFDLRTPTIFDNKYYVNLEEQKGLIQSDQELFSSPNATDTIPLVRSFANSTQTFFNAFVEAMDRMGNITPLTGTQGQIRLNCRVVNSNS
Description: To investigate the effect of selected palladium (II)-based complexes on the peroxidase (HRP)-catalyzed oxidation of the chemiluminescent probe (L-012), in the presence of hydrogen peroxide (H2O2), the chemiluminescence technique was used. Briefly, plate-reader-based luminescence measurements were performed in white 96-well plates using a Fluoroskan Ascent FL microplate reader (Thermo Labsystems, Vantaa, Finland), with the temperature set at 37 °C. To 5 µL of a stock solution of HRP (1 mg/mL) in phosphate buffer (pH = 7.5) per well, we successively added 10 µL of L-012 (aqueous solution, 0.84 mmoL) and 2 µL of tested compound in 163 µL of buffer solution. The reaction was triggered by adding 20 µL hydrogen peroxide (0.19 µM) to reach the final volume of 200 µL. The light emission, produced from oxidation of L-012 by HRP/H2O2 system, in the presence or absence of the tested palladium complex, was recorded in kinetic mode for 30 min. Inhibition of the emitted light due to tested complexes was associated with higher activity. The following formula was applied to calculate the inhibiting activity of complexes towards the oxidation of L-012 catalyzed by the HRP/H2O2 system:% inhibition = (L control − L Sample) x 100/L Control
as §1

[6] = parameters: method as in earlier work; details: values reported in the literature ref 60; read-out: EC50 ABTS, literature values; cited from earlier work

- EC50 (g Antioxidant/kg DPPH°) ([1]; EC50 expressed as weight of antioxidant per kg of DPPH radical): 87.98 ± 15 g Antioxidant/kg DPPH°
- EC50 ([1]; concentration scavenging 50% of DPPH, 90% MeOH, 30 min, mean ± SD): 5.79 ± 1 µM
- EC50 [2]: 5.56 ± 0.97 µM
- Effect on chemiluminescence at lowest concentrations ([5]; 1, 5, and 10 µM, HRP-H2O2/L-012): weak effect
- EC50 ([5]; HRP-H2O2/L-012 system, pH 7.5, 37 °C, 30 min, read-out: EC50 chemiluminescence assay): 7.06 ± 2.56 µM
Compound: O=c1c(O)c(-c2ccc(O)c(O)c2)oc2cc(O)cc(O)c12 [Qrcn, Quercetin, reference compound]
- EC50 (g antioxidant per Kg of DPPH), literature value [3]: 84 ± 6 g/kg
- AE (antiradical efficiency) ([4]; AE = 1/EC50.TEC50, DPPH): 0.1873 ×10^−3
- Classification of antiradical efficiency ([4]; according to Sanchez-Moreno, from AE value): Low
- TEC50 ([4]; time needed to reach the steady state at the EC50 concentration, DPPH): 61 min
- EC50 [6]: ~15 µM
